# In patent publication US8569336B2, “Compounds for the treatment of inflammatory disorders” (priority 2008, dated 2013):
# Molecular target: T1, purified catalytic domain of recombinant human TACE (rhTACEc) (Homo sapiens, UniProt P78536, N452Q/S266A)
# T1 construct: 6xHis (C); made in house; host or cells: baculovirus/Hi5 insect cells
# Assay: TACE kinetic assay: cleavage of internally quenched peptide substrate TNF-FRET 2 (Ki)
# Type: biochemical
# Conditions: Ki, TNF-FRET 2 substrate
# T1 sequence (P78536 215-477 S266A/N452Q): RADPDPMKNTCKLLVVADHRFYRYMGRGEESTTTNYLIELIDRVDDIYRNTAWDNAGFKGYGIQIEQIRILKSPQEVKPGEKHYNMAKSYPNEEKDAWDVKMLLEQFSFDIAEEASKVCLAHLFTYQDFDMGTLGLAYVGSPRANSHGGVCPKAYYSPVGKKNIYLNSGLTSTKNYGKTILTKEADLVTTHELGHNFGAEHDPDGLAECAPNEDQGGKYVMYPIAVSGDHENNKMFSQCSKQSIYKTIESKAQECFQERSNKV
row,SMILES,Ki
1,CNS(=O)(=O)c1cc2oc([C@]3(CN4Cc5ccc(OC)cc5C4=O)NC(=O)NC3=O)cc2cc1C [Compound 2480],0.43 nM
2,COc1ccc2c(c1)C(=O)N(C[C@@]1(c3cc4nc(-n5nc(N)cc5C)ccc4o3)NC(=O)NC1=O)C2 [Compound 2118],0.6 nM
3,COc1ccc2c(c1)C(=O)N(C[C@@]1(c3cc4c(C#N)nccc4o3)NC(=O)NC1=O)C2 [Compound 323],0.7 nM
4,COc1ccc2c(c1F)C(=O)N(C[C@@]1(c3cc4nc(N5CCNC(=O)C5)ccc4o3)NC(=O)NC1=O)C2 [Compound 1700],0.6 nM
5,COc1ccc2c(c1)C(=O)N(C[C@@]1(c3cc4nc(N(c5cn[nH]c5)C5CCN(C)CC5)ccc4o3)NC(=O)NC1=O)C2 [Compound 1703],1 nM
6,COc1ccc2c(c1F)C(=O)N(C[C@@]1(c3cc4nc(N5CC(=O)NC5=O)c(F)cc4o3)NC(=O)NC1=O)C2 [Compound 1330],0.39 nM
7,COc1ccc2c(c1)C(=O)N(C[C@@]1(c3cc4nc(-c5nnn[nH]5)ccc4o3)NC(=O)NC1=O)C2 [Compound 2167],0.351 nM
8,COc1ccc2c(c1)C(=O)N(C[C@@]1(c3cc4c(NCc5ccccc5)ccnc4o3)NC(=O)NC1=O)C2 [Compound 2248],1.61 nM
9,COc1ccc2c(c1)C(=O)N(C[C@@]1(c3cc4c(C)nc(N)nc4o3)NC(=O)NC1=O)C2 [Compound 2299],0.762 nM

# Same assay, conditions: TNF-FRET 2 substrate, read-out: Ki
row,Ki,SMILES
1,0.65 nM,COc1ccc2c(c1)C(=O)N(C[C@@]1(c3cc4ccc(NC(C)=O)nc4o3)NC(=O)NC1=O)C2 [Compound 2249]
2,0.274 nM,COc1ccc2c(c1)C(=O)N(C[C@@]1(c3cc4ccccc4o3)NC(=O)NC1=O)C2 [Compound 2214]
3,0.44 nM,COc1ccc2c(c1)C(=O)N(C[C@@]1(c3cc4cnc(Cl)cc4o3)NC(=O)NC1=O)C2 [Compound 2285]
4,0.807 nM,COc1ccc2c(c1)C(=O)N(C[C@@]1(c3cc4cc(N)ccc4o3)NC(=O)NC1=O)C2 [Compound 2226]
5,0.66 nM,COc1ccc2c(c1F)C(=O)N(C[C@@]1(c3cc4nc(N5CCNC5=O)c(F)cc4o3)NC(=O)NC1=O)C2 [Compound 1331]
6,0.8 nM,COc1ccc2c(c1)C(=O)N(C[C@@]1(c3cc4cnc(-c5cccc(C#N)c5)cc4o3)NC(=O)NC1=O)C2 [Compound 2431]
7,0.745 nM,COc1ccc2c(c1)C(=O)N(C[C@@]1(c3cc4nc(-c5ccc(C#N)nc5)ccc4o3)NC(=O)NC1=O)C2 [Compound 2472]
8,0.576 nM,COc1ccc2c(c1)C(=O)N(C[C@@]1(c3cc4nc(Nc5ncccn5)ccc4o3)NC(=O)NC1=O)C2 [Compound 2169]
9,0.731 nM,COc1ccc2c(c1)C(=O)N(C[C@@]1(c3cc4cc(C(C)=O)cnc4o3)NC(=O)NC1=O)C2 [Compound 2433]
10,0.375 nM,COc1ccc2c(c1)C(=O)N(C[C@@]1(c3cc4[nH]c(=O)ccc4o3)NC(=O)NC1=O)C2 [Compound 2317]
11,0.8 nM,COc1ccc2c(c1)C(=O)N(C[C@@]1(c3cc4c(C(C)=O)nccc4o3)NC(=O)NC1=O)C2 [Compound 2448]
12,0.57 nM,COc1ccc2c(c1Cl)C(=O)N(C[C@@]1(c3cc4cnccc4o3)NC(=O)NC1=O)C2 [Compound 2306]
13,1.1 nM,COCCN1CCN(c2ccc3oc([C@]4(CN5Cc6ccc(OC)cc6C5=O)NC(=O)NC4=O)cc3n2)CC1 [Compound 1500]
14,0.9 nM,COc1ccc2c(c1)C(=O)N(C[C@@]1(c3cc4nc(C5CC5)ccc4o3)NC(=O)NC1=O)C2 [Compound 1508]
15,0.701 nM,COc1ccc2c(c1)C(=O)N(C[C@@]1(c3cc4cc(NS(C)(=O)=O)ccc4o3)NC(=O)NC1=O)C2 [Compound 2222]
16,0.5 nM,COc1ccc2c(c1)C(=O)N(C[C@@]1(c3cc4nc(-c5cnc(OC)nc5OC)ccc4o3)NC(=O)NC1=O)C2 [Compound 1509]
17,1.1 nM,COc1ccc2c(c1)C(=O)N(C[C@@]1(c3cc4c(N5CCNC(=O)C5)nccc4o3)NC(=O)NC1=O)C2 [Compound 2280]

# Tested on: TNF-α production from human whole blood
# Assay: Inhibition of TNF-α production from human whole blood (hWBA), LPS stimulated, ELISA
# Type: cell-based
# Conditions: Homo sapiens, 3.5 h, human whole blood diluted 1:1, LPS stimulated, 3.5 h, TNF-α by ELISA; read-out: hWBA (IC50)
row,IC50,SMILES
1,178 nM,COc1ccc2c(c1)C(=O)N(C[C@@]1(c3cc4ccc(NC(C)=O)nc4o3)NC(=O)NC1=O)C2 [Compound 2249]
2,2310 nM,COc1ccc2c(c1)C(=O)N(C[C@@]1(c3cc4ccccc4o3)NC(=O)NC1=O)C2 [Compound 2214]
3,573 nM,COc1ccc2c(c1)C(=O)N(C[C@@]1(c3cc4cc(N)ccc4o3)NC(=O)NC1=O)C2 [Compound 2226]
4,920 nM,COc1ccc2c(c1)C(=O)N(C[C@@]1(c3cc4nc(Nc5ncccn5)ccc4o3)NC(=O)NC1=O)C2 [Compound 2169]
5,343 nM,COc1ccc2c(c1)C(=O)N(C[C@@]1(c3cc4cc(NS(C)(=O)=O)ccc4o3)NC(=O)NC1=O)C2 [Compound 2222]

row,SMILES,IC50
1,COc1ccc2c(c1)C(=O)N(C[C@@]1(c3cc4nc(-n5nc(N)cc5C)ccc4o3)NC(=O)NC1=O)C2 [Compound 2118],3790 nM
2,COc1ccc2c(c1)C(=O)N(C[C@@]1(c3cc4nc(-c5nnn[nH]5)ccc4o3)NC(=O)NC1=O)C2 [Compound 2167],289 nM
3,COc1ccc2c(c1)C(=O)N(C[C@@]1(c3cc4c(NCc5ccccc5)ccnc4o3)NC(=O)NC1=O)C2 [Compound 2248],233 nM

# Same assay, conditions: Homo sapiens, LPS-stimulated human whole blood, TNF-α by ELISA; read-out: hWBA (IC50)
row,IC50,SMILES
1,310 nM,COc1ccc2c(c1F)C(=O)N(C[C@@]1(c3cc4nc(N5CCNC5=O)c(F)cc4o3)NC(=O)NC1=O)C2 [Compound 1331]
2,333 nM,COCCN1CCN(c2ccc3oc([C@]4(CN5Cc6ccc(OC)cc6C5=O)NC(=O)NC4=O)cc3n2)CC1 [Compound 1500]
3,2430 nM,COc1ccc2c(c1)C(=O)N(C[C@@]1(c3cc4nc(C5CC5)ccc4o3)NC(=O)NC1=O)C2 [Compound 1508]
4,2920 nM,COc1ccc2c(c1)C(=O)N(C[C@@]1(c3cc4nc(-c5cnc(OC)nc5OC)ccc4o3)NC(=O)NC1=O)C2 [Compound 1509]

row,SMILES,IC50
1,COc1ccc2c(c1)C(=O)N(C[C@@]1(c3cc4c(C#N)nccc4o3)NC(=O)NC1=O)C2 [Compound 323],1240 nM

# Same assay, conditions: Homo sapiens, human whole blood diluted 1:1, LPS stimulated, TNF-α by ELISA; read-out: hWBA (IC50)
row,IC50,SMILES
1,368 nM,COc1ccc2c(c1)C(=O)N(C[C@@]1(c3cc4cnc(Cl)cc4o3)NC(=O)NC1=O)C2 [Compound 2285]
2,1610 nM,COc1ccc2c(c1)C(=O)N(C[C@@]1(c3cc4nc(-c5ccc(C#N)nc5)ccc4o3)NC(=O)NC1=O)C2 [Compound 2472]
3,712 nM,COc1ccc2c(c1)C(=O)N(C[C@@]1(c3cc4cc(C(C)=O)cnc4o3)NC(=O)NC1=O)C2 [Compound 2433]
4,542 nM,COc1ccc2c(c1)C(=O)N(C[C@@]1(c3cc4[nH]c(=O)ccc4o3)NC(=O)NC1=O)C2 [Compound 2317]
5,839 nM,COc1ccc2c(c1)C(=O)N(C[C@@]1(c3cc4c(C(C)=O)nccc4o3)NC(=O)NC1=O)C2 [Compound 2448]
6,834 nM,COc1ccc2c(c1Cl)C(=O)N(C[C@@]1(c3cc4cnccc4o3)NC(=O)NC1=O)C2 [Compound 2306]
7,340 nM,COc1ccc2c(c1)C(=O)N(C[C@@]1(c3cc4c(N5CCNC(=O)C5)nccc4o3)NC(=O)NC1=O)C2 [Compound 2280]

row,SMILES,IC50
1,CNS(=O)(=O)c1cc2oc([C@]3(CN4Cc5ccc(OC)cc5C4=O)NC(=O)NC3=O)cc2cc1C [Compound 2480],1390 nM
2,COc1ccc2c(c1)C(=O)N(C[C@@]1(c3cc4c(C)nc(N)nc4o3)NC(=O)NC1=O)C2 [Compound 2299],284 nM

# Same assay, conditions: human whole blood diluted 1:1, LPS stimulated, TNF-α by ELISA; read-out: hWBA (IC50)
row,IC50,SMILES
1,8420 nM,COc1ccc2c(c1)C(=O)N(C[C@@]1(c3cc4cnc(-c5cccc(C#N)c5)cc4o3)NC(=O)NC1=O)C2 [Compound 2431]

# Tested on: not listed separately
# Assay: Area under the curve determinations of plasma levels in rats (rrAUC), oral 10 mg/kg
# Type: in vivo
# Conditions: blood collected 0.5-6 h post-dosing
row,"RR AUC (rapid rat AUC, rrAUC)",SMILES
1,10.648 µM·h,COc1ccc2c(c1)C(=O)N(C[C@@]1(c3cc4cnc(-c5cccc(C#N)c5)cc4o3)NC(=O)NC1=O)C2 [Compound 2431]

# Same assay, conditions: rat, plasma 0.5-6 h, read-out: RR AUC (rapid rat AUC, rrAUC)
row,SMILES,AUC
1,COc1ccc2c(c1F)C(=O)N(C[C@@]1(c3cc4nc(N5CCNC5=O)c(F)cc4o3)NC(=O)NC1=O)C2 [Compound 1331],0.67 µM·h
2,COc1ccc2c(c1)C(=O)N(C[C@@]1(c3cc4c(C#N)nccc4o3)NC(=O)NC1=O)C2 [Compound 323],0.485 µM·h
3,COc1ccc2c(c1F)C(=O)N(C[C@@]1(c3cc4nc(N5CCNC(=O)C5)ccc4o3)NC(=O)NC1=O)C2 [Compound 1700],0.105 µM·h
4,COc1ccc2c(c1)C(=O)N(C[C@@]1(c3cc4nc(N(c5cn[nH]c5)C5CCN(C)CC5)ccc4o3)NC(=O)NC1=O)C2 [Compound 1703],0.064 µM·h
5,COc1ccc2c(c1F)C(=O)N(C[C@@]1(c3cc4nc(N5CC(=O)NC5=O)c(F)cc4o3)NC(=O)NC1=O)C2 [Compound 1330],3.19 µM·h

# Same assay, conditions: rat, plasma 0.5-6 h post-dosing, read-out: RR AUC (rapid rat AUC, rrAUC)
row,AUC,SMILES
1,0.974 µM·h,COc1ccc2c(c1)C(=O)N(C[C@@]1(c3cc4ccc(NC(C)=O)nc4o3)NC(=O)NC1=O)C2 [Compound 2249]
2,0.195 µM·h,COc1ccc2c(c1)C(=O)N(C[C@@]1(c3cc4ccccc4o3)NC(=O)NC1=O)C2 [Compound 2214]
3,0.467 µM·h,COc1ccc2c(c1)C(=O)N(C[C@@]1(c3cc4cc(N)ccc4o3)NC(=O)NC1=O)C2 [Compound 2226]
4,4.83 µM·h,COc1ccc2c(c1)C(=O)N(C[C@@]1(c3cc4nc(Nc5ncccn5)ccc4o3)NC(=O)NC1=O)C2 [Compound 2169]

row,SMILES,AUC
1,COc1ccc2c(c1)C(=O)N(C[C@@]1(c3cc4nc(-n5nc(N)cc5C)ccc4o3)NC(=O)NC1=O)C2 [Compound 2118],0.527 µM·h

# Same assay, conditions: rat, plasma, blood collected 0.5-6 h post-dosing, read-out: RR AUC (rapid rat AUC, rrAUC)
row,AUC,SMILES
1,22.2 µM·h,COc1ccc2c(c1)C(=O)N(C[C@@]1(c3cc4cnc(Cl)cc4o3)NC(=O)NC1=O)C2 [Compound 2285]
2,0.536 µM·h,COc1ccc2c(c1)C(=O)N(C[C@@]1(c3cc4nc(-c5ccc(C#N)nc5)ccc4o3)NC(=O)NC1=O)C2 [Compound 2472]

row,SMILES,AUC
1,CNS(=O)(=O)c1cc2oc([C@]3(CN4Cc5ccc(OC)cc5C4=O)NC(=O)NC3=O)cc2cc1C [Compound 2480],0.212 µM·h
